According to US20080026456A1, “Method and apparatus for reducing pathogens in a biological sample” (priority 2002, published 2008):

Tests used:
[1] = system: Brucella abortus Strain 19; format: cell-based
[2] = system: Campylobacter fetus isolate [4914]; format: cell-based
[3] = system: cultured cells and embryos; set-up: dose or concentration left out as unconfirmed; conditions: 37° C.; cited from earlier work
Mycoplasma species = conditions: without detrimentally affecting embryonic development in vitro; cited from earlier work
[4] = system: fresh semen of domestic bulls (Bos taurus) and gaur (Bos gaur) bulls; experiment: Sperm survival after Percoll column with trypsin, fresh bull and gaur semen; format: cell-based; conditions: 0.125% trypsin in 45% Percoll column
[5] = system: confluent buffalo rat liver cell monolayers; experiment: Trypsin activity after dilution: detachment of confluent somatic cell monolayers; format: cell-based; conditions: final concentrations 0.125% and […]
bovine sperm = experiment: Sperm viability with trypsin in density gradient (later studies)

Compound	sensitivity of isolate to antibiotic [1]	sensitivity of isolate to antibiotic [2]	also measured
gentamicin	sensitive	sensitive	–
CN[C@@H]1[C@H](O)[C@H](NC)[C@H]2O[C@@]3(O)C(=O)C[C@@H](C)O[C@H]3O[C@@H]2[C@H]1O [spectinomycin]	sensitive	intermediate	–
NC[C@H]1O[C@H](O[C@H]2[C@H](O)[C@@H](O[C@H]3O[C@H](CO)[C@@H](O)[C@H](N)[C@H]3O)[C@H](N)C[C@@H]2N)[C@H](O)[C@@H](O)[C@@H]1O [kanamycin]	–	–	toxicity to cultured cells and embryos [3]: very little toxicity
CC[C@H]1OC(=O)C[C@@H](O)[C@H](C)[C@@H](O[C@@H]2O[C@H](C)[C@@H](O[C@H]3C[C@@](C)(O)[C@@H](O)[C@H](C)O3)[C@H](N(C)C)[C@H]2O)[C@@H](CC=O)C[C@@H](C)C(=O)/C=C/C(C)=C/[C@@H]1CO[C@@H]1O[C@H](C)[C@@H](O)[C@@H](OC)[C@H]1OC [tylosin]	intermediate	intermediate	minimal concentration for eliminating Mycoplasma species from bovine embryos (Mycoplasma species): 200 µg/mL
CCC[C@@H]1C[C@@H](C(=O)N[C@@H]([C@H]2O[C@H](SC)[C@H](O)[C@@H](O)[C@H]2O)[C@@H](C)O)N(C)C1 [lincomycin]	resistant	sensitive	–
trypsin	–	–	effect on sperm motility, viability, acrosomal integrity [4]: no detrimental affects; enzymatic activity after dilution with Percoll, Isolate or egg yolk-based cryodiluents [5]: did not diminish enzymatic activity; effect of increasing trypsin concentration on sperm (bovine sperm): no detrimental effects
